Series [1] relates to primary neurons. The series is described as follows: TMRM fluorescence assay of inner mitochondrial membrane potential (ΔΨm). The procedure:
Mitochondrial dyes. To assay the electrochemical potential across the inner mitochondrial membrane of cultured cells, we used the cell-permeant dye tetramethylrhodamine methyl ester (TMRM). For co-localization studies with Mt-GFP, TMRM was used at 20 nM on DIV14 and incubated for 30 min prior to imaging. For the orthogonal screen of compounds, TMRM was added to primary neurons on DIV13 at 10 nM, one hr prior to pintooling selected compounds, and incubated for 24 hr. Cells were washed 2× with pre-warmed fresh feeding media without B27 before measurements with a plate reader.
(§1) A CLARIOstar (BMG LABTECH) microplate reader was used to measure fluorescence of TMRM and luminescence produced from the ATP.
(§2) Mitochondrial membrane potential (Δψm) and luminescence-based ATP assays. […] Changes of ΔΨm in each well were monitored using the mitochondrial-specific, fluorescent dye TMRM (tetramethyl rhodamine, methyl ester; Molecular Probes) and measured using a CLARIOstar plate reader. […] This concentration was used throughout our experiments. […] Wells in columns 1 and 24 were not loaded with TMRM; these served to measure background signal which was subtracted from the wells to which TMRM was added. To measure the total ATP levels in neurons we utilized the CellTiter-Glo® luminescence-based ATP assay (Promega). DIV13 primary neurons were cultured for 24 h with either DMSO carrier or compound treatment, followed by removing 55 μl culture medium from each well. Plates were maintained at room temperature for 25 m, and 25 μl of CellTiter-Glo® Reagent with the substrate luciferin was then added to each well (Promega). Plates were covered with aluminum foil and shaken vigorously on an orbital shaker for 10 m at 200 rpm and maintained at room temperature for an additional 2 m in dark before being read with the plate reader set to the luminescence mode.
Compound library and hit picking rules. We screened 2400 compounds from the MicroSource Spectrum library. […] FIGS. 13A-13E provide details of the assays used from which hit picking rules were made. In essence, the average fluorescence for each compound in the TMRM assay was determined and compared to the average fluorescence for compounds in the population on each assay plate to produce a Z-score. The Z-scores for each individual compound assayed across the four replicate plates was then averaged.

For series [2], the system named is primary neurons. The series is described as follows: CellTiter-Glo luminescence-based ATP assay. Conditions: for ATP: ATP orthogonal screen, 24 h. The class given is cell-based, mouse. Here is the method:
Measurement of ATP production. The total amount of ATP produced by cultured primary neurons was measured by CellTiter-Glo Luminescent Cell Viability Assay (Promega). A recombinant luciferase enzyme catalyzed the mono-oxygenation of luciferin while hydrolyzing ATP produced by the cells and emitting light. We followed the manufacturer's protocol with primary neurons on DIV14.
as §1, §2
Compound library and hit picking rules. We screened 2400 compounds from the MicroSource Spectrum library. […] FIGS. 13A-13E provide details of the assays used from which hit picking rules were made. In essence, the average fluorescence for each compound in the TMRM assay was determined and compared to the average fluorescence for compounds in the population on each assay plate to produce a Z-score. The Z-scores for each individual compound assayed across the four replicate plates was then averaged. Because of significant well location effects (outer rows) on each assay plate (FIG. 13G), we selected primary hits as enhancing well fluorescence above the μplate by 3σplate for inner row wells (rows C-N, columns 3-22), and by 2.5σplate for outer row wells (rows A, B, O, P; columns 3-22) (FIG. 14C-D). […] All orthogonal assays employed inner wells of the 384-well plates.

Molecules are shown by their SMILES. Structures can show the parent of a compound that is named as a salt. Where two headings read alike, the source gives them in different places.

On to `CC(C)NCC(O)COc1cccc2ccccc12.Cl` (racemic) [propranolol hydrochloride (+/−)], for which the “TMRM Primary” value in the series with primary neurons [1] (primary screen, 12.5 μM, 24 h) turned out to be 4.03 Z-scores. In addition, the “TMRM Rescreen” value in the series on primary neurons [1] (rescreen, 24 h) is 3.07 Z-scores. For the same compound, the ATP with primary neurons [2] is 5.06 Z-scores.
For `CC1(C)[C@H](O)CC(=O)[C@]2(C)[C@H]3CC[C@@]4(C)[C@H](c5ccoc5)OC(=O)[C@H]5O[C@]54[C@]3(C)C(=O)C[C@@H]12` [1,7-dideacetoxy-1,7-dioxo-3-deacetylkhivorin], the “TMRM Primary” value with primary neurons [1] (primary screen, 12.5 μM, 24 h) was 3.65 Z-scores. Further, the “TMRM Rescreen” value with primary neurons [1] (rescreen, 24 h) is recorded as 4.00 Z-scores. In the series with primary neurons [2], this compound had an ATP of 5.46 Z-scores.
In the case of `COc1cc2oc3cc(OC)c(OC)c(CC=C(C)C)c3c(=O)c2c(O)c1CC=C(C)C` [1-hydroxy-3,6,7-trimethoxy-2,8-diprenylxanthone], the “TMRM Primary” value in the series with primary neurons [1] (primary screen, 12.5 μM, 24 h) was found to be 3.34 Z-scores. Further, the “TMRM Rescreen” value in the series on primary neurons [1] (rescreen, 24 h) amounted to 3.27 Z-scores. Also, the ATP in the series with primary neurons [2] turned out to be 5.44 Z-scores.
On the same counts, the results for `COc1ccc(C(=O)/C=C/c2ccccc2)cc1` [4′-methoxychalcone] are 3.42 Z-scores, 1.48 Z-scores and 3.97 Z-scores.
Regarding `COc1ccc(-c2coc3cc(O)cc(OC)c3c2=O)cc1` [5,4′-dimethoxy-7-hydroxyisoflavone], the “TMRM Primary” value in the series on primary neurons [1] (primary screen, 12.5 μM, 24 h) is listed as 5.24 Z-scores. Moreover, the “TMRM Rescreen” value in the series on primary neurons [1] (rescreen, 24 h) amounted to 6.90 Z-scores. This compound returned an ATP in the series on primary neurons [2] of 5.76 Z-scores.
Taken in the same sequence, the figures for `CC(C)CCC[C@@H](C)[C@H]1CC[C@H]2[C@@H]3CC(=O)[C@H]4C[C@@H](O)CC[C@]4(C)[C@H]3CC[C@]12C` [5alpha-cholestan-3beta-ol-6-one] were 7.10 Z-scores, 7.61 Z-scores and 5.86 Z-scores.
As for `O=c1[nH]c2ccccc2n1CCCN1CCC(n2c(=O)[nH]c3cc(Cl)ccc32)CC1` [DOMPERIDONE], the Emax in the series on primary neurons [1] (Mus musculus, Primary neuron, read-out: TMRM (Effect-size)) was 28.3%; in the series on primary neurons [2] (Mus musculus, Primary neuron, maximal percent increase relative to in-plate DMSO controls, dose response, read-out: ATP (Effect-size)) it was 13%. The “TMRM Primary” value in the series with primary neurons [1] (primary screen, 12.5 μM, 24 h) was 3.33 Z-scores. In the series on primary neurons [1] (rescreen, 24 h), the “TMRM Rescreen” value is given as 5.58 Z-scores. In addition, the ATP in the series with primary neurons [2] came to 5.20 Z-scores.
For the compound `CC(C)(C)OO` [Peroxide, tert-butyl hydroperoxide], the “reduction of whole well TMRM fluorescence” value in the series with primary neurons [1] (50 μM, 24 h, DIV14 neuronal cultures) is reported as around 40%.
Take `CCN(CC)CCOC(=O)C(c1ccccc1)c1ccccc1` [adiphenine hydrochloride]: the “TMRM Primary” value in the series with primary neurons [1] (primary screen, 12.5 μM, 24 h) came to 3.05 Z-scores. In the series on primary neurons [1] (rescreen, 24 h), the “TMRM Rescreen” value was found to be 3.21 Z-scores. Besides, the ATP in the series on primary neurons [2] amounted to 4.95 Z-scores.
On the same counts, the results for `CC[C@H]1[C@@H]2C[C@H]3[C@@H]4N(C)c5ccccc5[C@]45C[C@@H]([C@H]2[C@H]5O)N3[C@@H]1O` [ajmaline] are 3.76 Z-scores, 6.40 Z-scores and 4.76 Z-scores.
Taken in the same sequence, the figures for `Nc1c(Br)cc(Br)cc1CN[C@H]1CC[C@H](O)CC1` [ambroxol hydrochloride] were 4.00 Z-scores, 5.14 Z-scores and 5.04 Z-scores.
On the same counts, the results for `CN(C)CCC=C1c2ccccc2CCc2ccccc21` [amitriptyline hydrochloride] are 4.78 Z-scores, 1.81 Z-scores and 4.82 Z-scores.
For `N=c1ccn2c(n1)O[C@H]1[C@H](O)[C@@H](CO)O[C@H]12` [ancitabine hydrochloride], in the series with primary neurons [1] (primary screen, 12.5 μM, 24 h), the “TMRM Primary” value was found to be 3.04 Z-scores. In addition, in the series with primary neurons [1] (rescreen, 24 h), the “TMRM Rescreen” value is given as 1.36 Z-scores. In addition, the ATP with primary neurons [2] is listed as 0.14 Z-scores.
Turning to `C[C@]12CC[C@@H](O)C[C@@H]1CC[C@@H]1[C@@H]2CC[C@]2(C)C(=O)CC[C@@H]12` [androsterone], in the series on primary neurons [1], the “TMRM Primary” value amounted to 3.77 Z-scores and the “TMRM Rescreen” value was 4.76 Z-scores. Moreover, the ATP in the series on primary neurons [2] came out at 5.63 Z-scores.
As to `O=C1CCc2ccc(OCCCCN3CCN(c4cccc(Cl)c4Cl)CC3)cc2N1` [aripiprazole], the “TMRM Primary” value with primary neurons [1] (primary screen, 12.5 μM, 24 h) is 2.98 Z-scores. Further, in the series with primary neurons [1] (rescreen, 24 h), the “TMRM Rescreen” value worked out at 7.76 Z-scores. In addition, the ATP in the series on primary neurons [2] stood at 3.66 Z-scores.
Taken in the same sequence, the figures for `COc1ccc(CN=c2[nH]c(N3CCC[C@H]3CO)ncc2C(=O)NCc2ncccn2)cc1Cl` [avanafil] were 3.13 Z-scores, 3.42 Z-scores and 1.30 Z-scores.
On the same counts, the results for `CN1CCCC(n2nc(Cc3ccc(Cl)cc3)c3ccccc3c2=O)CC1` (stereo not shown) [azelastine hydrochloride] are 7.06 Z-scores, 6.13 Z-scores and 5.30 Z-scores.
Regarding `CCOC(=O)[C@H](CCc1ccccc1)N[C@H]1CCc2ccccc2N(CC(=O)O)C1=O` [benazepril hydrochloride], the “TMRM Primary” value in the series with primary neurons [1] (primary screen, 12.5 μM, 24 h) was determined as 3.43 Z-scores. Also, the “TMRM Rescreen” value in the series with primary neurons [1] (rescreen, 24 h) stood at 2.43 Z-scores. This compound also showed an ATP in the series on primary neurons [2] of 5.26 Z-scores.
`CCCCNc1ccc(C(=O)OCCOCCOCCOCCOCCOCCOCCOCCOCCOC)cc1` [benzonatate]: in the series with primary neurons [1] (primary screen, 12.5 μM, 24 h), the “TMRM Primary” value is listed as 2.78 Z-scores. The “TMRM Rescreen” value with primary neurons [1] (rescreen, 24 h) was 8.21 Z-scores. Also, the ATP in the series with primary neurons [2] was found to be 4.35 Z-scores.
With `c1ccc(-c2ccc(C(c3ccccc3)n3ccnc3)cc2)cc1` (stereo not shown) [bifonazole], in the series with primary neurons [1] (primary screen, 12.5 μM, 24 h), the “TMRM Primary” value is reported as 3.81 Z-scores. Also, the “TMRM Rescreen” value in the series on primary neurons [1] (rescreen, 24 h) stood at 1.84 Z-scores. In addition, the ATP in the series with primary neurons [2] was determined as 4.00 Z-scores.
As to `CC(C)(c1ccc(O)cc1)c1ccc(O)cc1` [bisphenol a], in the series with primary neurons [1] (12.5 μM, 4 h), the “hit in TMRM primary screen when assayed at 4 h” value is listed as “bisphenol a*”. For the same compound, the “TMRM Primary” value in the series with primary neurons [1] (primary screen, 12.5 μM, 24 h) is 3.35 Z-scores. Also, in the series with primary neurons [1] (rescreen, 24 h), the “TMRM Rescreen” value turned out to be 7.40 Z-scores. In addition, in the series with primary neurons [2], the ATP is listed as 4.73 Z-scores.
`CCCCN1CCCCC1C(=O)Nc1c(C)cccc1C` (stereo not shown) [bupivacaine hydrochloride]: the “TMRM Primary” value in the series on primary neurons [1] (primary screen, 12.5 μM, 24 h) is on record as 5.35 Z-scores. The “TMRM Rescreen” value in the series on primary neurons [1] (rescreen, 24 h) stood at 5.25 Z-scores. This compound showed an ATP in the series with primary neurons [2] of 4.80 Z-scores.
On to `COC(=O)C[C@H]1C2(C)CC34OC5(C)O[C@@]6([C@H](OC(C)=O)C(OC(C)=O)[C@]7(C)C(/C(=C(/O)C(C)C)C(=O)O[C@H]7c7ccoc7)[C@@]6(O5)[C@H](OC(C)=O)[C@@]3(O)C2OC(=O)C(C)C)[C@]14C` (stereo partly shown) [bussein], for which, in the series with primary neurons [1] (primary screen, 12.5 μM, 24 h), the “TMRM Primary” value is 3.44 Z-scores. The “TMRM Rescreen” value in the series with primary neurons [1] (rescreen, 24 h) is recorded as 3.92 Z-scores. In the series with primary neurons [2], this compound came in with an ATP of 5.58 Z-scores.
For `CCCCOC(=O)c1ccc(O)cc1` [butyl paraben], the “TMRM Primary” value in the series with primary neurons [1] (primary screen, 12.5 μM, 24 h) is recorded as 3.42 Z-scores. Besides, the “TMRM Rescreen” value in the series with primary neurons [1] (rescreen, 24 h) is on record as 4.18 Z-scores. The same compound had an ATP with primary neurons [2] of 3.84 Z-scores.
With `COC(=O)C[C@H]1C(C)(C)C(=O)[C@@H]2CC3=C(CC[C@]4(C)C3=CC(=O)O[C@H]4c3ccoc3)[C@@]1(C)C2=O` [carapin-8(9)-ene], in the series on primary neurons [1] (primary screen, 12.5 μM, 24 h), the “TMRM Primary” value is given as 3.50 Z-scores. In the series on primary neurons [1] (rescreen, 24 h), the “TMRM Rescreen” value came out at 3.82 Z-scores. In addition, the ATP in the series with primary neurons [2] came to 4.89 Z-scores.
On the same counts, the results for `CN(C)CCN(Cc1ccc(Cl)cc1)c1ccccn1` [chloropyramine hydrochloride] are 3.35 Z-scores, 5.24 Z-scores and 3.26 Z-scores.
On the same counts, the results for `CN(C)CCCN1c2ccccc2Sc2ccc(Cl)cc21` [chlorpromazine] are 2.79 Z-scores, 2.66 Z-scores and 5.00 Z-scores.
On the same counts, the results for `CN(C)CC/C=C1/c2ccccc2Sc2ccc(Cl)cc21` [chlorprothixene hydrochloride] are 6.17 Z-scores, 5.04 Z-scores and 3.17 Z-scores.
As to `CN1CCC[C@@H]1CCO[C@](C)(c1ccccc1)c1ccc(Cl)cc1` [clemastine fumarate], in the series with primary neurons [1] (primary screen, 12.5 μM, 24 h), the “TMRM Primary” value is listed as 2.82 Z-scores. The “TMRM Rescreen” value with primary neurons [1] (rescreen, 24 h) came to 3.22 Z-scores.
In turn, `CNCCC(Oc1ccc(C(F)(F)F)cc1)c1ccccc1` (stereo not shown) [fluoxetine hydrochloride] showed an ATP with primary neurons [2] of 3.70 Z-scores.
